Experimental data reported in ChEMBL document CHEMBL3046165, “Synthesis of new cyclic imides derivatives with potential hypolipidemic activity” (Med Chem Res, 2012).

Legend:
Rattus norvegicus [1] = test: Toxicity in triton WR-1339-induced Rattus norvegicus albino Wistar (rat) hyperlipidemic model assessed as reduction of serum HDL level at 150 mg/kg, po qd after 24 hr; format: organism-based; parameters: dose 150 mg/kg, route oral; conditions: in vivo
Rattus norvegicus [2] = test: Toxicity in triton WR-1339-induced Rattus norvegicus albino Wistar (rat) hyperlipidemic model assessed as increase of serum total cholesterol level at 150 mg/kg, po qd after 24 hr; format: organism-based; parameters: dose 150 mg/kg, route oral; conditions: in vivo
Rattus norvegicus [3] = test: Toxicity in triton WR-1339-induced Rattus norvegicus albino Wistar (rat) hyperlipidemic model assessed as increase of serum LDL level at 150 mg/kg, po qd after 24 hr; format: organism-based; parameters: dose 150 mg/kg, route oral; conditions: in vivo
Rattus norvegicus [4] = test: Toxicity in triton WR-1339-induced Rattus norvegicus albino Wistar (rat) hyperlipidemic model assessed as increase of serum total triglyceride level at 150 mg/kg, po qd after 24 hr; format: organism-based; parameters: dose 150 mg/kg, route oral; conditions: in vivo
Rattus norvegicus [5] = test: Hypolipidemic activity in triton WR-1339-induced Rattus norvegicus albino Wistar (rat) hyperlipidemic model assessed as reduction of serum total triglyceride level at 150 mg/kg, po qd after 24 hr; format: functional; parameters: scale not given: the % may be the effect or the level left
Rattus norvegicus [6] = test: Hypolipidemic activity in triton WR-1339-induced Rattus norvegicus albino Wistar (rat) hyperlipidemic model assessed as reduction of serum total cholesterol level at 150 mg/kg, po qd after 24 hr; format: functional; parameters: scale not given: the % may be the effect or the level left
Rattus norvegicus [7] = test: Hypolipidemic activity in triton WR-1339-induced Rattus norvegicus albino Wistar (rat) hyperlipidemic model assessed as increase of serum HDL level at 150 mg/kg, po qd after 24 hr; format: functional

## CC(C(=O)NCc1ccccc1)N1C(=O)c2ccccc2C1=O (centres undefined)
Rattus norvegicus [1]
  Activity: Toxic
Rattus norvegicus [2]
  Activity: Toxic
Rattus norvegicus [3]
  Activity: 35.5%
Rattus norvegicus [4]
  Activity: Toxic

## CC(C(=O)Nc1ccccc1)N1C(=O)c2ccccc2C1=O (centres undefined)
Rattus norvegicus [5]
  Activity: <24%
Rattus norvegicus [6]
  Activity: <24%

## CCNC(=O)C(C)N1C(=O)c2ccccc2C1=O (centres undefined)
Rattus norvegicus [1]
  Activity: Toxic
Rattus norvegicus [2]
  Activity: Toxic
Rattus norvegicus [3]
  Activity: 35.5%
Rattus norvegicus [4]
  Activity: Toxic

## CCCNC(=O)C(C)N1C(=O)c2ccccc2C1=O (centres undefined)
Rattus norvegicus [1]
  Activity: Toxic
Rattus norvegicus [2]
  Activity: Toxic
Rattus norvegicus [3]
  Activity: 35.5%
Rattus norvegicus [4]
  Activity: Toxic

## CC(C)NC(=O)C(C)N1C(=O)c2ccccc2C1=O (centres undefined)
Rattus norvegicus [1]
  Activity: Toxic
Rattus norvegicus [2]
  Activity: Toxic
Rattus norvegicus [3]
  Activity: 35.5%
Rattus norvegicus [4]
  Activity: Toxic

## CC(C(=O)NCCc1ccccc1)N1C(=O)c2ccccc2C1=O (centres undefined)
Rattus norvegicus [1]
  Activity: Toxic
Rattus norvegicus [2]
  Activity: Toxic
Rattus norvegicus [3]
  Activity: 35.5%
Rattus norvegicus [4]
  Activity: Toxic

## CC(C(=O)N1CCCC1)N1C(=O)c2ccccc2C1=O (centres undefined)
Rattus norvegicus [1]
  Activity: Toxic
Rattus norvegicus [2]
  Activity: Toxic
Rattus norvegicus [3]
  Activity: 35.5%
Rattus norvegicus [4]
  Activity: Toxic

## CCNC(=O)C(C)N1C(=O)c2cccc3cccc(c23)C1=O (centres undefined)
Rattus norvegicus [7]
  Activity: 29.3%
Rattus norvegicus [3]
  Activity: 4.5%

## CC(C(=O)Nc1ccccc1)N1C(=O)c2cccc3cccc(c23)C1=O (centres undefined)
Rattus norvegicus [7]
  Activity: 29.3%
Rattus norvegicus [3]
  Activity: 4.5%

## CC(C(=O)NCc1ccccc1)N1C(=O)c2cccc3cccc(c23)C1=O (centres undefined)
Rattus norvegicus [7]
  Activity: 29.3%
Rattus norvegicus [3]
  Activity: 4.5%

## CC(C(=O)NCc1ccccc1)n1c(=O)c2ccccc2c2ccccc2c1=O (centres undefined)
Rattus norvegicus [7]
  Activity: 29.3%
Rattus norvegicus [3]
  Activity: 4.5%

## CCNC(=O)c1ccccc1C(=O)NC(C)C(=O)NCC (centres undefined)
Rattus norvegicus [5]
  Activity: 46.5%
Rattus norvegicus [6]
  Activity: 48.6%

## CC(C)OC(=O)C(C)(C)Oc1ccc(C(=O)c2ccc(Cl)cc2)cc1 [FENOFIBRATE]
Rattus norvegicus [5]
  Activity: 20%
Rattus norvegicus [3]
  Activity: 13%
Rattus norvegicus [6]
  Activity: 23%
